This note sets out measurements from US20020019527A1 (priority 2000, published 2002).

Counter-ions that a name gives are not always drawn.

What is called inhibition is the drop in the measured response relative to a control, in per cent. A word on the % Inhibition: it is the share of the control response that was lost under treatment. Lower therefore signals a response near the control.

T1 sequence (P49355 whole entry, one chain of several): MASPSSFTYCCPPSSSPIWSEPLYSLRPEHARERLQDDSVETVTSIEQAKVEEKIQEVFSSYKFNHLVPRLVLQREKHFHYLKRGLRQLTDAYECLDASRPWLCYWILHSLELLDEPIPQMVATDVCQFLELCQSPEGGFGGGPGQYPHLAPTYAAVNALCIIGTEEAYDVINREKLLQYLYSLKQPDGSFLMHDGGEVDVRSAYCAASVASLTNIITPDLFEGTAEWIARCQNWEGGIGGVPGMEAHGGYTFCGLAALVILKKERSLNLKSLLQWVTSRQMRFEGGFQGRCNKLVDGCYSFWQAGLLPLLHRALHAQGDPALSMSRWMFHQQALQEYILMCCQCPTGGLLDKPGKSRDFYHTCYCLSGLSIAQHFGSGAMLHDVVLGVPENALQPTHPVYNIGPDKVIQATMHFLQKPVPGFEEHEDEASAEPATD

The assay addresses T1, Farnesyltransferase (FTase) (Bos taurus, UniProt P29702+P49355).
T1 construct: precipitation from a beef brain homogenate; from tissue; host or cells: bovine brain
The assay can be described thus: Farnesyltransferase inhibition (scintillation proximity assay, [3H]-FPP / biotin-K-ras peptide). Format: biochemical, bovine. Particulars: compound at 10^−6 M; bovine FTase, 37° C., 30 minutes. Here is the method:
Farnesyltransferase (FTase) or geranylgeranyltransferase I (GGTase I) fractions were isolated from bovine brains and purified by a series of methods which separate FTase from GGTase I and GGTase I from GGTase II. The methods involved a partial purification of all three enzymes by precipitation from a beef brain homogenate with 30% to 50% saturated […] followed by chromatography on DEAE Sepharose. […] The catalytic purity of each enzyme was assayed separately with substrate acceptor proteins specific for that enzyme. After quickly freezing in liquid nitrogen, the various prenyl transferases were stored at −80° C.
The quenched reactions stood for 1 hour before analysis in a Packard TopCount scintillation counter. Purified compounds were dissolved in 100% ethanol and diluted 10-fold into the assay.
Background: SPA uses beads or plates that emit light when radiolabelled molecules are held near them.
On to `Cn1cncc1C(NCc1ccc(C#N)c(Br)c1)c1ccc(C#N)c(-c2cccc3ccccc23)c1` (stereo not drawn) [Example 33, 4-(((3-bromo-4-cyanobenzyl)amino)(1-methyl-1H-imidazol-5-yl)methyl)-2-(1-naphthyl)benzonitrile dihydrochloride], for which at 1 µM the inhibition was 100%.
Same read-out and setting: with `Cn1cncc1CN(Cc1ccc(C#N)cc1)Cc1ccc(C#N)c(-c2cccc3ccccc23)c1` [Example 34, 4-(((4-cyanobenzyl)((1-methyl-1H-imidazol-5-yl)methyl)amino)methyl)-2-(1-naphthyl)benzonitrile] the figure was 100%; with `Cn1cncc1C(NCc1ccc(C#N)c(Cl)c1)c1ccc(C#N)c(-c2cccc3ccccc23)c1` (stereo not drawn) [Example 35, 4-(((3-chloro4-cyanobenzyl)amino)(1-methyl-1H-imidazol-5-yl)methyl)-2-(1-naphthyl)benzonitrile dihydrochloride], 100%; with `CC(NC(c1ccc(C#N)c(-c2cccc3ccccc23)c1)c1cncn1C)c1ccc(C#N)cc1` (stereo not drawn) [Example 36, 4-(((1-(4-cyanophenyl)ethyl)amino)(1-methyl-1H-imidazol-5-yl)methyl)-2-(1-naphthyl)benzonitrile dihydrochloride], 100%.
Still for that read-out and setting: as for `Cn1cncc1C(NCc1ccc(C#N)c(I)c1)c1ccc(C#N)c(-c2cccc3ccccc23)c1` (stereo not drawn) [Example 37, 4-(((4-cyano-3-iodobenzyl)amino)(1-methyl-1H-imidazol-5-yl)methyl)-2-(1-naphthyl)benzonitrile dihydrochloride], the figure is 100%.
Still for that read-out and setting: as for `COC(=O)c1ccc(CNC(c2ccc(C#N)c(-c3cccc4ccccc34)c2)c2cncn2C)cc1` (stereo not drawn) [Example 38, methyl 4-((((4-cyano-3-(1-naphthyl)phenyl)(1-methyl-1H-imidazol-5-yl)methyl)amino)methyl)benzoate], the figure is 100%; as for `Cn1cncc1C(NCc1ccc(C(=O)O)cc1)c1ccc(C#N)c(-c2cccc3ccccc23)c1` (stereo not drawn) [Example 39, lithium 4-((((4-cyano-3-(1-naphthyl)phenyl)(1-methyl-1H-imidazol-5-yl)methyl)amino)methyl)benzoate], 100%; as for `Cn1cncc1CN(Cc1ccc(Cl)cc1)Cc1ccc(C#N)c(-c2cccc3ccccc23)c1` [Example 40, 4-(((4-chlorobenzyl)((1-methyl-1H-imidazol-5-yl)methyl)amino)methyl)-2-(1-naphthyl)benzonitrile dihydrochloride], 100%.
As to `Cn1cncc1CN(Cc1ccc(OC(F)(F)F)cc1)Cc1ccc(C#N)c(-c2cccc3ccccc23)c1` [Example 41, 4-((((1-methyl-1H-imidazol-5-yl)methyl)(4-(trifluoromethoxy)benzyl)amino)methyl)-2-(1-naphthyl)benzonitrile dihydrochloride], testing at 1 µM gave an inhibition of 100%.
Consider `Cn1cncc1C(NCc1ccc(Cl)cc1)c1ccc(C#N)c(-c2cccc3ccccc23)c1` (stereo not drawn) [Example 42, 4-(((4-chlorobenzyl)amino)(1-methyl-1H-imidazol-5-yl)methyl)-2-(1-naphthyl)benzonitrile], for which the inhibition at 1 µM stood at 100%.
Still for that read-out and setting: with `Cn1cncc1C(OCc1ccc(C#N)cc1)c1ccc(C#N)c(-c2cccc3ncccc23)c1` (stereo not drawn) [Example 43, 4-(((4-cyanobenzyl)oxy)(1-methyl-1H-imidazol-5-yl)methyl)-2-(5-quinolinyl)benzonitrile dihydrochloride] the figure was 100%; with `Cn1cncc1C(OCc1ccc(C#N)cc1)c1ccc(C#N)c(-c2cccc3cnccc23)c1` (stereo not drawn) [Example 44, 4-(((4-cyanobenzyl)oxy)(1-methyl-1H-imidazol-5-yl)methyl)-2-(5-isoquinolinyl)benzonitrile], 100%.
In the case of `N#Cc1ccc(CN(Cc2ccc(C#N)c(-c3cccc4ccccc34)c2)Cc2cnc[nH]2)cc1` [Example 45, 4-(((4-cyanobenzyl)(1H-imidazol-5-ylmethyl)amino)methyl)-2-(1-naphthyl)benzonitrile dihydrochloride], at 1 µM the inhibition was 100%.
Compound `N#Cc1ccc(COC(c2ccc(C#N)c(-c3cccc4ccccc34)c2)c2cnc[nH]2)cc1` (stereo not drawn) [Example 46, 4-(((4-cyanobenzyl)oxy)(1H-imidazol-5-yl)methyl)-2-(1-naphthyl)benzonitrile hydrochloride] had an inhibition at 1 µM of 100%.
Compound `Cn1cncc1C(NCc1ccc(Cl)c(Cl)c1)c1ccc(C#N)c(-c2cccc3ccccc23)c1` (stereo not drawn) [Example 47, 4-(((3,4-dichlorobenzyl)amino)(1-methyl-1H-imidazol-5-yl)methyl)-2-(1-naphthyl)benzonitrile] returned an inhibition at 1 µM of 100%.
`CNC(=O)c1ccc(CNC(c2ccc(C#N)c(-c3cccc4ccccc34)c2)c2cncn2C)cc1` (stereo not drawn) [Example 48, 4-((((4-cyano-3-(1-naphthyl)phenyl)(1-methyl-1H-imidazol-5-yl)methyl)amino)methyl)-N-methylbenzamide dihydrochloride]: the inhibition at 1 µM was 100%.
Take `N#Cc1ccc(COC(c2ccc(C#N)c(-c3cccc4ccccc34)c2)c2cn(C(c3ccccc3)(c3ccccc3)c3ccccc3)cn2)cc1` (stereo not drawn) [Example 49, 4-(((4-cyanobenzyl)oxy)(1-trityl-1H-imidazol-4-yl)methyl)-2-(1-naphthyl)benzonitrile]: testing at 1 µM gave an inhibition of 62%.
Same read-out and setting: as for `CCOC(=O)N1CCC(NC(c2ccc(C#N)c(-c3cccc4ccccc34)c2)c2cncn2C)CC1` (stereo not drawn) [Example 50, ethyl 4-(((4-cyano-3-(1-naphthyl)phenyl)(1-methyl-1H-imidazol-5-yl)methyl)amino)-1-piperidinecarboxylate dihydrochloride], the figure is 100%; as for `Cn1cncc1C(NCc1ccc(C#N)cn1)c1ccc(C#N)c(-c2cccc3ccccc23)c1` (stereo not drawn) [Example 51, 6-((((4-cyano-3-(1-naphthyl)phenyl)(1-methyl-1H-imidazol-5-yl)methyl)amino)methyl)nicotinonitrile trihydrochloride], 100%.
Consider `COC(=O)c1ccc(CNC(c2ccc(C#N)c(-c3cccc4ccccc34)c2)c2cncn2C)nc1` (stereo not drawn) [Example 52, methyl 6-((((4-cyano-3-(1-naphthyl)phenyl)(1-methyl-1H-imidazol-5-yl)methyl)amino)methyl)nicotinate trihydrochloride], for which the inhibition at 1 µM was determined as 100%.
The same measure, in the same setting: as for `CC(=O)Nc1ccc(CNC(c2ccc(C#N)c(-c3cccc4ccccc34)c2)c2cncn2C)cc1` (stereo not drawn) [Example 53, N-(4-((((4-cyano-3-(1-naphthyl)phenyl)(1-methyl-1H-imidazol-5-yl)methyl)amino)methyl)phenyl)acetamide dihydrochloride], the figure is 100%; as for `Cn1cncc1C(NC1CCN(C(=O)OCc2ccccc2)CC1)c1ccc(C#N)c(-c2cccc3ccccc23)c1` (stereo not drawn) [Example 54, benzyl 4-(((4-cyano-3-(1-naphthyl)phenyl)(1-methyl-1H-imidazol-5-yl)methyl)amino)-1-piperidinecarboxylate dihydrochloride], 100%; as for `Cn1cncc1C(NC1CCN(Cc2ccccc2)CC1)c1ccc(C#N)c(-c2cccc3ccccc23)c1` (stereo not drawn) [Example 55, 4-(((1-benzyl-4-piperidinyl)amino)(1-methyl-1H-imidazol-5-yl)methyl)-2-(1-naphthyl)benzonitrile trihydrochloride], 100%.
For `Cn1cncc1C(NC1CCN(C(=O)OC(C)(C)C)CC1)c1ccc(C#N)c(-c2cccc3ccccc23)c1` (stereo not drawn) [Example 56, tert-butyl 4-(((4-cyano-3-(1-naphthyl)phenyl)(1-methyl-1H-imidazol-5-yl)methyl)amino)-1-piperidinecarboxylate], testing at 1 µM gave an inhibition of 100%.
On to `Cn1cncc1C(NC1CCN(C(=O)c2ccccc2)CC1)c1ccc(C#N)c(-c2cccc3ccccc23)c1` (stereo not drawn) [Example 57, 4-(((1-benzoyl4-piperidinyl)amino)(1-methyl-1H-imidazol-5-yl)methyl)-2-(1-naphthyl)benzonitrile dihydrochloride], for which the inhibition at 1 µM was 100%.
Still for that read-out and setting: with `Cn1cncc1C(NCc1ccc(C(N)=O)cc1)c1ccc(C#N)c(-c2cccc3ccccc23)c1` (stereo not drawn) [Example 58, 4-((((4-cyano-3-(1-naphthyl)phenyl)(1-methyl-1H-imidazol-5-yl)methyl)amino)methyl)benzamide dihydrochloride] the figure was 100%.
As to `Cl.Cn1cncc1C(OCc1ccc([N+](=O)[O-])cc1)c1ccc(C#N)c(-c2cccc3ccccc23)c1` (stereo not drawn) [Example 59, 4-((1-methyl-1H-imidazol-5-yl)((4-nitrobenzyl)oxy)methyl)-2-(1,1-naphthyl)benzonitrile hydrochloride], the “% Inhibition at 10^−6M” value is listed as 100%.
Consider `Cn1cncc1C(OCc1ccc(C#N)cc1)c1ccc(C#N)c(I)c1` (stereo not drawn) [Example 60, 4-(((4-cyanobenzyl)oxy)(1-methyl-1H-imidazol-5-yl)methyl)-2-iodobenzonitrile hydrochloride], for which the inhibition at 1 µM was 96%.
Consider `Cn1cncc1C(OCc1ccc(C#N)c(Cl)c1)c1ccc(C#N)c(-c2cccc3ccccc23)c1` (stereo not drawn) [Example 61, 4-(((3-chloro-4-cyanobenzyl)oxy)(1-methyl-1H-imidazol-5-yl)methyl)-2-(1-naphthyl)benzonitrile hydrochloride], for which the inhibition at 1 µM amounted to 100%.
Same read-out and setting: as for `Cn1cncc1C(SCc1ccc(C#N)cc1)c1ccc(C#N)c(-c2cccc3ccccc23)c1` (stereo not drawn) [Example 62, 4-(((4-cyanobenzyl)sulfanyl)(1-methyl-1H-imidazol-5-yl)methyl)-2-(1-naphthyl)benzonitrile hydrochloride], the figure is 100%.
